Data taken from the NIST ThermoML archive (doi:10.1021/je9003959).
± gives the expanded uncertainty stated by the source.

Key:
[1] = 101 kPa, Liquid; for viscosity: Capillary tube (Ostwald / Ubbelohde) method; for speed of sound: Cylindrical cavity resonance method
[2] = refractive index (Na D-line) (dimensionless); conditions: 101.33 kPa, Liquid, Standard Abbe refractometry
[3] = xn = mol fraction of the nth substance listed; conditions: 101 kPa, Liquid, x2 = 0; for viscosity: Capillary tube (Ostwald / Ubbelohde) method
[4] = refractive index (Na D-line) (dimensionless); xn = mol fraction of the nth substance listed; conditions: 101 kPa, Liquid, Standard Abbe refractometry, x2 = 0

Work on `CCN1CCCC1=O` [1-ethyl-2-pyrrolidinone] yielded a mass density ([1]; 293 K) of 1000.55 ± 1.8 kg/m3, a viscosity ([1]; 293 K) of 2.133 ± 0.027 mPa·s and a speed of sound ([1]; 293 K) of 1511.6 ± 2.1 m/s. It also gave a mass density ([1]; 298 K) of 996.24 ± 1.8 kg/m3, a viscosity ([1]; 298 K) of 2.022 ± 0.026 mPa·s and a speed of sound ([1]; 298 K) of 1492.5 ± 2.1 m/s. For the same compound, the mass density ([1]; 303 K) was 991.93 ± 1.9 kg/m3, the viscosity ([1]; 303 K) was 1.832 ± 0.024 mPa·s and the speed of sound ([1]; 303 K) was 1473.3 ± 2.1 m/s. It also gave a mass density ([1]; 313 K) of 983.26 ± 2 kg/m3, a viscosity ([1]; 313 K) of 1.621 ± 0.021 mPa·s and a speed of sound ([1]; 313 K) of 1435.3 ± 2.1 m/s. For the same compound, the mass density ([1]; 323 K) was 974.56 ± 2.1 kg/m3, the viscosity ([1]; 323 K) was 1.358 ± 0.018 mPa·s and the speed of sound ([1]; 323 K) was 1398 ± 2.1 m/s. For the same compound, the refractive index ([2]; 293 K) was 1.46461 ± 0.00077, the refractive index ([2]; 298 K) was 1.46192 ± 0.00087 and the refractive index ([2]; 303 K) was 1.45791 ± 0.00075. For the same compound, the refractive index ([2]; 313 K) was 1.45415 ± 0.00064 and the refractive index ([2]; 323 K) was 1.45147 ± 0.00062.
`O` [water] showed a mass density ([1]; 293 K) of 998.26 ± 1.2 kg/m3, a viscosity ([1]; 293 K) of 1.009 ± 0.01 mPa·s and a viscosity ([1]; 298 K) of 0.9029 ± 0.0094 mPa·s. For the same compound, the viscosity ([1]; 303 K) was 0.8133 ± 0.0084 mPa·s, the mass density ([1]; 313 K) was 992.26 ± 1.3 kg/m3 and the viscosity ([1]; 313 K) was 0.6693 ± 0.007 mPa·s. The speed of sound ([1]; 313 K) was 1529.1 ± 1.2 m/s, the viscosity ([1]; 323 K) was 0.5611 ± 0.0061 mPa·s and the refractive index ([2]; 293 K) was 1.33298 ± 0.00044. The refractive index ([2]; 298 K) was 1.33251 ± 0.00045, the refractive index ([2]; 303 K) was 1.33191 ± 0.00045 and the refractive index ([2]; 313 K) was 1.33061 ± 0.00046. It also gave a refractive index ([2]; 323 K) of 1.32902 ± 0.00046.
`O` [water] + CCN1CCCC1=O showed a viscosity ([3]; 293 K) of 1.009 ± 0.01 mPa·s, a mass density ([3]; 293 K) of 998.26 ± 1.2 kg/m3 and a viscosity ([3]; 298 K) of 0.9029 ± 0.0094 mPa·s. For the same compound, the viscosity ([3]; 303 K) was 0.8133 ± 0.0084 mPa·s, the viscosity ([3]; 313 K) was 0.6693 ± 0.007 mPa·s and the speed of sound ([3]; 313 K, Cylindrical cavity resonance method) was 1529.1 ± 1.2 m/s. It also gave a mass density ([3]; 313 K) of 992.26 ± 1.3 kg/m3, a viscosity ([3]; 323 K) of 0.5611 ± 0.0061 mPa·s and a refractive index ([4]; 293 K) of 1.33298 ± 0.00044. It also gave a refractive index ([4]; 298 K) of 1.33251 ± 0.00045, a refractive index ([4]; 303 K) of 1.33191 ± 0.00045 and a refractive index ([4]; 313 K) of 1.33061 ± 0.00046. The refractive index ([4]; 323 K) was 1.32902 ± 0.00046.
